{"source": "patent US20210386756A1", "about": "“IMPROVEMENTS FOR PERFORMING AND FACILITATING THE RECOVERY AFTER HEMATOPOIETIC STEM CELL TRANSPLANTATION” (Centro de Investigaciones Energéticas, Medioambientales y …, priority 2018, published 2021)", "key": {"human cord blood CD34+": {"system": "human cord blood CD34+", "experiment": "Human engraftment in female NSG mice transplanted with a limited CD34+ cell dose (5×10^3)", "type": "in vivo, mouse", "conditions": "low dose 5×10^3 hCD34+, mean +/− SEM", "description": "FIG. 7A indicates human hematopoietic reconstitution after four months. […] However, in spite of this presence of endogenous estrogens, the human engraftment in female recipients was increased after E2 and more importantly after E4 treatment. FIG. 7B relates the presence of primitive hematopoietic progenitors was higher in the female mice treated with estrogens, which indicated the quality of the reconstitution. (Kruskal-Wallis test; P<0.05, 4 mice per group). […] Three-four months later, the animals were sacrificed and the human hematopoietic engraftment was analyzed by FACS. Human hematopoietic population was identified as the cells positive for hCD45-APC-Cy7 (Biolegend) and negative for mouse CD45.1-PE (Biolegend). To assess whether estrogen can improve hematopoietic reconstitution in female recipients, female NSG were irradiated and transplanted by a low doses of human cord blood CD34^+ (5×10^3 hCD34^+). The human engraftment was analyzed as described in Example 1. […] However, in spite of this presence of endogenous estrogens, the human engraftment in female recipients was increased after E2 and more importantly after E4 treatment."}, "[1]": {"system": "human hematopoietic progenitors (CB-CD34+)", "experiment": "LTC-IC human bone marrow-like co-culture (hMSC + hCD34+) and CFU assay", "type": "cell-based", "experimental": "LTC-IC was established through the co-culture of human bone marrow Mesenchymal Stromal Cells (BM-MSC) and human progenitors (CB-CD34+) to research the positive effects of the estrogens in a human context, such as an in vitro human bone marrow model. LTC-ICs were treated with vehicle or 100 µM of E2 or E4 for a week. […] Cells were plated in methycellulose media with specific hematopoietic cytokines to evaluate the hematopoietic progenitor content. After 14 days, colony forming units (CFU) were counted. Data were normalized to control groups. […] 1×10^5 human mesenchymal stromal cells (hMSC) were seeded in a p6 well and irradiated with 30 Gy next day. The following day, 5×10^4 hCD34^+ were added to the hMSC in LTC-IC media: 75% α-MEM without Phenol Red (Life Technologies), 12.5% Hyclone FBS (GE Healthcare), HS (Life Technologies), β-mercaptoethanol (Life Technologies), 0.5% PS and 1×10^−6 M Hydrocortisone (Sigma-Aldrich). 100 μM of estrogens, dissolved in ethanol, was added to the co-culture for a week, and then the cells were collected and the amount of human hematopoietic progenitors were evaluated in semisolid media supplement with specific hematopoietic cytokines (H4535, StemCell Technologies) plus 8 U/ml hEPO. After fourteen days, colony-forming units (CFU) were evaluated and normalized to the control: […]"}, "[2]": {"system": "hCD34+ hematopoietic progenitors", "experiment": "In vitro toxicity of natural estrogens for hematopoietic progenitors (hCD34+ culture, FACS subsets)", "type": "cell-based, human", "conditions": "for % CD34+/CD38− / % HSC / % MLP / % MPP: four days culture", "experimental": "FIG. 9 relates the effect of different concentration of E1, E2, E3 and E4 in human hematopoietic progenitors. Human hematopoietic progenitors were culture in phenol red free media supplemented with 100 ng/mL SCF, 100 ng/ml FLT3L and 100 ng/ml TPO and different concentration of E1, E2, E3 and E4 (from 10 nM to 500 μM). FIG. 9A represents the fold increase of the number of hematopoietic cells after four days in culture. FIG. 9B indicates the total number of primitive hematopoietic progenitors (CD34^+/CD38^−) present in the culture, extrapolated from number of cells and the frequency of this population analyzed by FACS. […] Grey dashed lines point the value of control group, and red dashed lines indicate the initial values at day 0. (Kruskal-Wallis test; P<0.05, data from four independent experiments).\nTo assess the toxicity of the natural estrogens (E1, E2, E3 and E4) for hematopoietic progenitors, in vitro studies were performed. 5×10^4 hCD34^+ were cultured in a phenol red-free media, X-Vivo 20 (Lonza), in presence of 100 ng/ml SCF, 100 ng/ml FLT3L, 100 ng/ml TPO, 0.5% PS, 1% Glutamax (Thermofisher) and different concentrations of E1, E2, E3 or E4 (from 10 nM to 500 μM). Cell proliferation and immunophenotype of different hematopoietic subsets (CD34^+/CD38^−, HSC [CD34^+/CD38^−/CD45RA^−/CD90^+], Multipotent Progenitors [MPP, CD34^+/CD38^−/CD45RA^−/CD90^−], Multipotent Lymphoid Progenitors [MLP, CD34^+/CD38^−/CD45RA^+] were evaluated at day 0 and four days after culture."}}, "data": [{"smiles": "C[C@]12CC[C@@H]3c4ccc(O)cc4CC[C@H]3[C@@H]1[C@@H](O)[C@@H](O)[C@@H]2O", "note": "[E4, estetrol]", "values": [{"measurement": "Percentage of hematopoietic stem cells (hCD34+/hCD38−) in the human hematopoietic population", "setting": "human cord blood CD34+", "value": "0.39 +/− 0.08 (n = 3) %"}, {"measurement": "Percentage of human hematopoietic reconstitution", "setting": "human cord blood CD34+", "value": "40.80 +/− 4.58 (n = 3) %"}, {"measurement": "Normalized human CFU", "setting": "[1]; 100 μM estrogen for a week, CFU after fourteen days, normalized to control, mean +/− SEM", "value": "1.98 +/− 0.23 (n = 6)"}, {"measurement": "total number of primitive hematopoietic progenitors in LTC-IC", "setting": "[1]; 100 μM for a week, versus vehicle", "value": "almost doubled"}, {"measurement": "toxicity for hematopoietic progenitor subpopulations", "setting": "[2]; 10 nM to 500 μM, in vitro", "value": "less toxic"}, {"measurement": "% CD34+/CD38−", "setting": "[2]; 10 nM", "value": "13.35 ± 0.87", "unit": "%"}, {"measurement": "% HSC", "setting": "[2]; 10 nM", "value": "1.75 ± 0.13", "unit": "%"}, {"measurement": "% MLP", "setting": "[2]; 10 nM", "value": "4.29 ± 0.44", "unit": "%"}, {"measurement": "% MPP", "setting": "[2]; 10 nM", "value": "4.39 ± 0.25", "unit": "%"}, {"measurement": "% CD34+/CD38−", "setting": "[2]; 100 nM", "value": "12.60 ± 0.68", "unit": "%"}, {"measurement": "% HSC", "setting": "[2]; 100 nM", "value": "1.67 ± 0.12", "unit": "%"}, {"measurement": "% MLP", "setting": "[2]; 100 nM", "value": "4.42 ± 0.16", "unit": "%"}, {"measurement": "% MPP", "setting": "[2]; 100 nM", "value": "4.35 ± 0.56", "unit": "%"}, {"measurement": "% CD34+/CD38−", "setting": "[2]; 1 μM", "value": "12.08 ± 1.22", "unit": "%"}, {"measurement": "% HSC", "setting": "[2]; 1 μM", "value": "1.86 ± 0.20", "unit": "%"}, {"measurement": "% MLP", "setting": "[2]; 1 μM", "value": "3.48 ± 0.73", "unit": "%"}, {"measurement": "% MPP", "setting": "[2]; 1 μM", "value": "4.89 ± 0.30", "unit": "%"}, {"measurement": "% CD34+/CD38−", "setting": "[2]; 10 μM", "value": "13.62 ± 0.54", "unit": "%"}, {"measurement": "% HSC", "setting": "[2]; 10 μM", "value": "2.03 ± 0.04", "unit": "%"}, {"measurement": "% MLP", "setting": "[2]; 10 μM", "value": "4.30 ± 0.29", "unit": "%"}, {"measurement": "% MPP", "setting": "[2]; 10 μM", "value": "4.57 ± 0.35", "unit": "%"}, {"measurement": "% CD34+/CD38−", "setting": "[2]; 100 μM", "value": "17.26 ± 2.24", "unit": "%"}, {"measurement": "% HSC", "setting": "[2]; 100 μM", "value": "3.67 ± 0.65", "unit": "%"}, {"measurement": "% MLP", "setting": "[2]; 100 μM", "value": "5.66 ± 1.49", "unit": "%"}, {"measurement": "% MPP", "setting": "[2]; 100 μM", "value": "3.85 ± 0.32", "unit": "%"}, {"measurement": "% CD34+/CD38−", "setting": "[2]; 500 μM", "value": "10.82 ± 2.79", "unit": "%"}, {"measurement": "% HSC", "setting": "[2]; 500 μM", "value": "3.76 ± 1.25", "unit": "%"}, {"measurement": "% MLP", "setting": "[2]; 500 μM", "value": "0.89 ± 0.18", "unit": "%"}, {"measurement": "% MPP", "setting": "[2]; 500 μM", "value": "3.11 ± 1.20", "unit": "%"}]}]}
